Earlier results on 1 compound are cited in article PMC6262012, “IMB-T130 targets 3-dehydroquinate synthase and inhibits Mycobacterium tuberculosis” (Scientific Reports, 2018).

SMILES strings stand for the structures.

The subject of the series is M. tuberculosis. As to conditions: drug-resistant strains, compared with RFP and INH; cited from earlier work.

For `O=C(Nc1nc(-c2ccccn2)cs1)c1ccc(Cl)s1` [IMB-T130, 5-chloro-N-[4-(pyridin-2-yl)-1,3-thiazol-2-yl] thiophene-2-carboxamide], the “MIC against drug-resistant strains” value is on record as “substantially lower MIC”.
